Results reported in article PMC11597746 (Pharmaceutics, 2024).
Values joined by “and” are separate entries in the source; they are usually repeats but may differ in a detail not shown here. Equal values may be shown once. Where a name gives a salt, the structure may show the parent alone. Read-outs that look alike come from different tables or passages of the source.

What was measured:
[1] = IIIPA group: PA 100 mg/kg b.w. + vehiculum, n = 8, mean ± SD, cited from earlier work
[2] = Plasma pharmacokinetics of PA, GPA and SPA in rats after single oral dose (HPLC-UV, noncompartmental analysis); type: in vivo, rats (Rattus norvegicus, outbred Wistar stock, males)
Experimental: (§1) Rats (Rattus norvegicus, outbred Wistar stock, males, 14 weeks old) were obtained from Anima Sp. z o.o. SK & ViVARI s.c. They were acclimated for one week in a temperature- and humidity-controlled environment with a 12 h light/dark cycle and had ad libitum access to food and water.
The drugs and vehicle were administered directly into the animals’ stomachs using a gastric probe. Animals received drugs in a sequential manner.
(§2) Blood samples were stored at −80 °C until analysis.
(§3) This approach reduced the number of animals involved in the experiment, adhering to the principles of the 3R concept. […] No other experimental conditions were altered.
The column temperature was maintained at 25 °C, the analytical wavelength (λmax) was set at 254 nm, and the injection volume was 50 μL. Theophylline was used as the IS.
The total time of analysis for each run was 10 min. Separation was achieved by isocratic elution of the mobile phase, comprising acetonitrile (93:7, v/v) and sodium sulfate 0.05 M pH 2.2 (adjusted with 85% orthophosphoric acid) at a flow rate of 1.0 mL/min through a BDS Hypersil® C18 column (150 mm × 4.6 mm, 5.0 μm particle size) (Thermo Electron Corporation®, Waltham, MA, USA).
(§4) Plasma data were subjected to noncompartmental pharmacokinetic analysis (NCA) using the PKanalix 2024R1 software (Lixoft, France). The maximum plasma concentration (Cmax) and time to reach Cmax (Tmax) were obtained directly from the concentration–time curves. The elimination rate constant (kel) was calculated by linear regression of the final linear part of plasma concentration against time. The elimination half-life (t0.5) was calculated from the formula t0.5 = 0.693/kel. The area under the concentration–time curve (AUC) was calculated using the linear trapezoidal rule. All data were presented as mean ± SD.

[3] = mean ± SD, cited from earlier work
[4] = Plasma pharmacokinetics of REG, M-2 and M-5 in rats after single oral dose (UPLC-MS/MS, noncompartmental analysis); type: in vivo, rats (Rattus norvegicus, outbred Wistar stock, males); conditions: for AUC0–∞ increased by / Cmax increased by: after the administration of PA (IREG+PA vs. IIREG); for AUC0–t / AUC0–∞ / Cmax: metabolite of REG
Experimental: as §1
The rats were divided into three groups: one group received REG and PA (IREG+PA), another group received REG (IIREG), and the last group received PA (IIIPA). […] [15] to the IREG+PA and IIIPA groups. The drugs and vehicle were administered directly into the animals’ stomachs using a gastric probe. Animals received drugs in a sequential manner.
as §2, §3
A Cortecs UPLC C18 column (2.1 × 50 mm, 1.6 μm) was equipped with an Acquity UPLC BEH C18 VanGuard pre-column (2.1 × 5 mm, 3/Pk, Waters Corporation). The injection volume was 5 μL. The temperature of the autosampler was 4 °C, and the temperature of the column was 40 °C. Mobile phase A comprised 0.1% aqueous FA solution (v/v) and phase B of ACN:MeOH and 0.1% FA aqueous solution at 1:3 (v/v) ratio. The total run time was 5 min.
The gradient was as follows: 0–0.5 min, with 10% B; 0.5–3 min, 95% B; 3–4 min, 95% B; 4–4.1 min, 10% B; and 4.1–5 min, 10% B. The flow rate was 0.4 mL/min. Positive electrospray ionization (ESI) multiple reaction monitoring (MRM) experiments were conducted for sample analysis. […] The Xevo TQ-S micro mass spectrometer settings were used: source temperature 150 °C, desolvation temperature 600 °C, nitrogen gas flow 900 L/h, and capillary voltage 3.6 kV.
as §4

[5] = patients taking lorlatinib compared to controls; cited from earlier work
[6] = after administration in tablet form; cited from earlier work
[7] = test system: plasma proteins; conditions: cited from earlier work
[8] = IREG+PA group: REG 20 mg/kg b.w. + PA 100 mg/kg b.w., n = 8, mean ± SD
[9] = IREG+PA group: REG 20 mg/kg b.w. + PA 100 mg/kg b.w., single p.o. dose, n = 8, mean ± SD
[10] = PA co-administered with REG vs. PA alone
[11] = metabolite of REG, IIREG group: vehiculum + REG 20 mg/kg b.w., single oral dose, n = 8
[12] = IREG+PA group: REG 20 mg/kg b.w. + PA 100 mg/kg b.w., single oral dose, n = 8, mean ± SD
[13] = regorafenib and paracetamol vs. control group
[14] = IIREG group: vehiculum + REG 20 mg/kg b.w., single oral dose, n = 8

## CC(=O)Nc1ccc(O[C@@H]2O[C@H](C(=O)O)[C@@H](O)[C@H](O)[C@H]2O)cc1 [GPA, paracetamol glucuronide]
[1]
  Ratio GPA/PA AUC0–t: 1.75 ± 0.47 (27.1)
  Ratio GPA/PA AUC0–∞: 1.78 ± 0.54 (30.6)
  Ratio GPA/PA Cmax: 1.67 ± 0.41 (24.8)
[1]; single p.o. dose
  AUC0–t: 136.24 ± 23.58 (17.3) µg × h/mL
  AUC0–∞: 154.09 ± 35.58 (23.09) µg × h/mL
  Cmax: 38.38 ± 3.75 (9.8) µg/mL
[2]; [8]
  Ratio GPA/PA AUC0–t: 1.50 ± 0.30 (19.7)
  Ratio GPA/PA AUC0–∞: 1.53 ± 0.34 (21.9)
  Ratio GPA/PA Cmax: 1.02 ± 0.19 (18.9)
[2]; [9]
  AUC0–t: 97.9 ± 16.13 (16.5) µg × h/mL
  AUC0–∞: 102.00 ± 18.50 (18.1) µg × h/mL
  Cmax: 27.11 ± 3.05 (11.25) µg/mL
[2]; IREG+PA vs. IIIPA
  GPA/PA ratio for Cmax decreased by: 63.73%
  Gmean ratio (90% CI) of AUC0–t: 0.72 (0.62; 0.84)
  Gmean ratio (90% CI) of AUC0–∞: 0.67 (0.55; 0.80)
  Gmean ratio (90% CI) of Cmax: 0.71 (0.64; 0.77)
  Gmean ratio (90% CI) of ratio GPA/PA AUC0–t: 0.87 (0.70; 1.09)
  Gmean ratio (90% CI) of ratio GPA/PA AUC0–∞: 0.88 (0.68; 1.13)
  Gmean ratio (90% CI) of ratio GPA/PA Cmax: 0.62 (0.50; 0.77)
[2]; [10]
  AUC0–t decreased by: 39.16%
  AUC0–∞ decreased by: 51.1% and 51.07%

## CNC(=O)c1cc(Oc2ccc(NC(=O)Nc3ccc(Cl)c(C(F)(F)F)c3)c(F)c2)cc[n+]1[O-] [M-2, regorafenib-N-oxide]
[3]; [11]
  AUC0–t: 9615.36 ± 2275.41 (23.7) ng × h/mL
  AUC0–∞: 11,469.93 ± 2133.05 (18.6) ng × h/mL
[4]
  AUC0–∞ increased by: 170%
  Cmax increased by: 220%
[4]; [12]
  AUC0–t: 31,036.39 ± 16,132.08 (52.0) ng × h/mL
  AUC0–∞: 31,434.01 ± 16,129.53 (51.3) ng × h/mL
  Cmax: 1087.58 ± 471.76 (43.4) ng/mL

## NC(=O)c1cc(Oc2ccc(NC(=O)Nc3ccc(Cl)c(C(F)(F)F)c3)c(F)c2)cc[n+]1[O-] [M-5, N-desmethyl-regorafenib-N-oxide]
[3]; [11]
  AUC0–t: 803.19 ± 177.02 (22.0) ng × h/mL
  AUC0–∞: 847.88 ± 178.97 (21.1) ng × h/mL
[4]
  AUC0–∞ increased by: 1730%
  Cmax increased by: 2130%
[4]; [12]
  AUC0–t: 15,054.83 ± 7479.43 (49.7) ng × h/mL
  AUC0–∞: 15,506.44 ± 8001.74 (51.6) ng × h/mL
  Cmax: 585.96 ± 193.12 (33.0) ng/mL

## CC(=O)Nc1ccc(O)cc1 [PA, paracetamol, reference compound]
[1]; single p.o. dose
  Vd/F: 1.98 ± 0.63 mL/g
  t0.5: 2.26 ± 0.70 (31.0) h
  tmax: 0.81 ± 0.58 (71.2) h
[5]
  decrease in AUC0–∞: 43%
  decrease in Cmax: 15%
[2]; [9]
  Cmax: 27.08 ± 3.88 (14.3) µg/mL
  t0.5: 1.14 ± 0.45 (39.7) h
[2]; [10]
  AUC0–t decreased by: 20.72%
[2]; PA co-administered with REG vs. PA alone, listed as paracetamol
  AUC0–t decreased by: 17.16%
[2]; [13]
  decrease in Vd/F: 54.04%
  decrease in t0.5: 49.56%

## CNC(=O)c1cc(Oc2ccc(NC(=O)Nc3ccc(Cl)c(C(F)(F)F)c3)c(F)c2)ccn1 [REG, regorafenib]
[6]
  average bioavailability: 69%
[7]
  bind to plasma proteins: 99.5%
[3]; [14]
  AUC0–∞: 36.85 ± 5.83 (15.8) µg × h/mL
  Cmax: 1.87 ± 0.31 (16.5) µg/mL
  Vd/F: 2.05 ± 0.61 (29.7) L
  kel: 0.11 ± 0.03 (22.8) 1/h
[3]; IIREG group
  Sum of the Cmax values for REG, M-2, and M-5: 2078.95 ± 691.36 ng/mL
[4]; [12]
  t0.5: 10.67 ± 2.48 (23.28) h
[4]
  AUC0–∞ increased by: 1140%
  Cmax increased by: 890%

## CC(=O)Nc1ccc(OS(=O)(=O)O)cc1 [SPA, paracetamol sulfate]
[1]
  Ratio SPA/PA AUC0–t: 0.91 ± 0.43 (47.3)
  Ratio SPA/PA AUC0–∞: 0.94 ± 0.40 (42.4)
  Ratio SPA/PA Cmax: 0.88 ± 0.46 (52.7)
[1]; single p.o. dose
  AUC0–t: 71.92 ± 31.03 (43.2) µg × h/mL
  AUC0–∞: 82.42 ± 32.71 (39.7) µg × h/mL
  Cmax: 19.41 ± 7.05 (36.4) µg/mL
[2]; [8]
  Ratio SPA/PA AUC0–t: 2.18 ± 0.50 (22.9)
  Ratio SPA/PA AUC0–∞: 2.40 ± 0.68 (28.4)
  Ratio SPA/PA Cmax: 1.14 ± 0.12 (10.1)
[2]; [9]
  AUC0–t: 140.89 ± 17.87 (12.7) µg × h/mL
  AUC0–∞: 157.71 ± 24.35 (15.4) µg × h/mL
  Cmax: 30.61 ± 3.94 (12.9) µg/mL
[2]; IREG+PA vs. IIIPA
  Gmean ratio (90% CI) of AUC0–t: 2.13 (1.58; 2.86)
  Gmean ratio (90% CI) of AUC0–∞: 2.04 (1.54; 2.71)
  Gmean ratio (90% CI) of Cmax: 1.67 (1.29; 2.15)
  Gmean ratio (90% CI) of ratio SPA/PA AUC0–t: 2.58 (1.84; 3.60)
  Gmean ratio (90% CI) of ratio SPA/PA AUC0–∞: 2.69 (1.94; 3.72)
  Gmean ratio (90% CI) of ratio SPA/PA Cmax: 1.47 (1.04; 2.09)
  SPA/PA ratio for AUC0–t increased by: 139.52%
  SPA/PA ratio for AUC0–∞ increased by: 155.32%
[2]; [10]
  AUC0–t increased by: 95.89%
  AUC0–∞ increased by: 91.35%
  Cmax increased by: 57.70%
